Reference: patent US20110028549A1, “USE OF A MONOTERPENE TO TREAT OR PREVENT STRESS” (AISA THERAPEUTICS, priority 2007, published 2011)

Columns and labels:
[1] = system: female rats Wistar HsdBrlHan; test: Functional Observation Battery (FOB) in rats after oral treatment; assay type: in vivo, rat; details: for aggression (summary) / audible vocalization (summary) / body temperature (summary) / escapes after finger approach (summary) / interest for an object, curiosity (summary) / irritability (summary) / mictions (summary) / number of squares crossed (summary) / pain response (summary) / spontaneous activity (summary) / startle response (summary) / time before the rat falls (summary) / toe pinch reflex (summary) / wire manoeuvre (summary): FOB 1, 2 or 3 hours later, in comparison with the control; for capacity to tolerate stress: rats submitted to several stressful conditions, compared to vehicle-treated animals
Protocol: 1, 2 or 3 hours later, a Functional Observation Battery (FOB) was carried out.
Eighteen female rats Wistar HsdBrlHan EOPS (Ganat, France) with an average weight of 175-200 g are used. The 18 rats are weighed, marked and shared in 3 groups of 6 (n=6):
“control” group=oral treatment with maize oil;
“Perillic alcohol 10” group=oral treatment with perillic alcohol at 10 mg/kg;
The observations are carried out 60 minutes before treatment and 60, 120 and 180 minutes after the administration orally of the assayed products and comprise three observation phases:
a first direct observation phase during which the animal is not disturbed;
an active observation phase during which the animal is manipulated;
a phase dedicated to the evaluation of the responses of the animals towards the reactivity assays.
The studied variables are the following:
behavioural effects: spontaneous locomotive activity, locomotive behaviour troubles, anxiety, touch response, irritability, aggression and freezing caused behaviours, somnolence, number of defecations, number of mictions, sensor-motor responses (toe pinch response and sound response);
neurological effects: pupillary reflex, palpebral closure, pelvic elevation, tail position, limb and abdominal tones, reversal test, grip test, tremors and piloerection;
physiological effects: salivation, lacrimation, diarrhea, body temperature, respiratory rhythm.
Considering the Gaussian distribution or not of the data, parametric (P) or non-parametric (NP) tests are used: ANOVA (P) or Kruskal-Wallis test (NP) followed possibly by the Dunnett test (P) or the Mann-Whitney test (NP) to compare the treated groups with the control group. Statistics are carried out with the Statview 5 software (SAS, Institute Inc., USA).

isoprenylation enzymes = details: cited from earlier work
[2] = cancer patients, doses which may have clinical activity; cited from earlier work
[3] = 100 mg/kg limonene ingested in a custard, 4 h after ingestion, GC/MS; cited from earlier work
[4] = 10 mg/kg orally, T+60 min, Mann-Whitney test
[5] = 10 mg/kg orally, T+120 min, Mann-Whitney test
[6] = 10 mg/kg orally, T+180 min, Mann-Whitney test
[7] = 10 mg/kg orally, T+120 min, Mann-Whitney test vs. Control, n = 6
[8] = 10 mg/kg orally, T+180 min, Mann-Whitney test vs. Control, n = 6

Compound | duration of the effect ([1]; 10 mg/kg orally) | overall effect indicated by the FOB results ([1]; 10 mg/kg orally) | time to response (onset) ([1]; 10 mg/kg orally) | aggression (summary) ([1]; 10 mg/kg orally) | audible vocalization (summary) ([1]; 10 mg/kg orally) | body temperature (summary) ([1]; 10 mg/kg orally) | escapes after finger approach (summary) ([1]; 10 mg/kg orally) | interest for an object, curiosity (summary) ([1]; 10 mg/kg orally) | irritability (summary) ([1]; 10 mg/kg orally) | mictions (summary) ([1]; 10 mg/kg orally) | number of squares crossed (summary) ([1]; 10 mg/kg orally) | pain response (summary) ([1]; 10 mg/kg orally) | spontaneous activity (summary) ([1]; 10 mg/kg orally) | startle response (summary) ([1]; 10 mg/kg orally) | time before the rat falls (summary) ([1]; 10 mg/kg orally) | toe pinch reflex (summary) ([1]; 10 mg/kg orally) | wire manoeuvre (summary) ([1]; 10 mg/kg orally) | Audible vocalization vs control group [1, 4] | Interest for an object vs control group [1, 4] | inhibition of the isoprenylation enzymes (isoprenylation enzymes) | other results
C=C(C)[C@H]1CC=C(C)CC1 [Limonene, (4R)-1-methyl-4-isopropenylcyclohex-1-ene] | at least 3 hours | an appeasing, relaxing effect, an anti-pain effect and an effect on temper giving a cheerful character | less than one hour | no aggression | very poor | a decrease | less quickly escapes | an increase | no irritability | an increase | an increase | a high decrease | an increase | an important decrease | an increase | a decrease | an increase | significantly less vocalization | significantly more important | only weak inhibitors | Irritability vs control group [1, 4]: significantly less irritable; Toe pinch reflex vs control group [1, 4]: significantly less reactive; Audible vocalization vs control group [1, 5]: significantly less vocalization; Finger approach, escapes vs control group [1, 5]: significantly less escapes; Interest for an object vs control group [1, 5]: significantly more important; Irritability vs control group [1, 5]: significantly less irritable; Startles vs control group [1, 5]: significantly less startles; Audible vocalization vs control group [1, 6]: significantly less vocalization; Body temperature vs control group [1, 6]: significantly lower; Interest for an object vs control group [1, 6]: significantly higher; Number of squares crossed vs control group [1, 6]: significantly more squares; Startles vs control group [1, 6]: significantly less startles; Wire manoeuvre vs control group [1, 6]: significantly more often; capacity to tolerate stress [1]: an important effect leading to the capacity to tolerate stress; tolerability [2]: well tolerated; compounds (plasma metabolites) present in blood [3]: at least five compounds; identity of the two major plasma metabolite peaks [3]: dihydroperillic acid and perillic acid
S-limonene | – | – | – | – | – | – | – | – | – | – | – | – | – | – | – | – | – | – | – | only weak inhibitors | –
C=C(C)[C@@H]1CC=C(CO)CC1 [Perillic alcohol, (S)-4-Isopropenyl-1-cyclohexenylmethanol] | already decreased after 2 hours | an appeasing, relaxing effect, an anti-pain effect and an effect on temper giving a cheerful character | less than one hour | no aggression | very poor | a decrease | less quickly escapes | an increase | no irritability | an increase | an increase | a high decrease | an increase | an important decrease | an increase | a decrease | an increase | tendancy to emit less vocalization | tendency to have a more important interest | more potent inhibitors | Irritability vs control group [1, 4]: significantly less irritable; Toe pinch reflex vs control group [1, 4]: significantly less reactive; Finger approach, escapes vs control group [1, 5]: significantly less escapes; Audible vocalization [1, 7]: N.S.; Interest for an object [1, 7]: N.S.; Irritability [1, 7]: N.S.; Startles [1, 7]: N.S.; Audible vocalization vs control group [1, 6]: tendency to emit less vocalization; Body temperature [1, 8]: N.S.; Interest for an object [1, 8]: N.S.; Number of squares crossed [1, 8]: N.S.; Startles [1, 8]: N.S.; Wire manoeuver [1, 8]: N.S.; capacity to tolerate stress [1]: an important effect leading to the capacity to tolerate stress; IC50 on isoprenylation enzymes (isoprenylation enzymes): low mM range
C=C(C)[C@@H]1CC=C(C(=O)O)CC1 [perillic acid] | – | – | – | – | – | – | – | – | – | – | – | – | – | – | – | – | – | – | – | more potent inhibitors | IC50 on isoprenylation enzymes (isoprenylation enzymes): low mM range
